The values below come from PMC12566593, “Effects of Different Centrifugation Parameters on Equilibrium Solubility Measurements” (Methods and Protocols, 2025).

≈ marks a conversion by molar mass, not a printed value. Where two headings read alike, the source gives them in different places.

For series [1] the following is noted: cited from earlier work; for Filtration: Result Range: % of reference, all filters.
For series [2] the following is noted: cited from earlier work.
The nature of series [3]: Equilibrium solubility, saturation shake-flask, centrifugation as phase separation. Conditions: for solubility thermodynamic / solubility thermodynamic at 24 h: Britton-Robinson buffer; for solubility thermodynamic: pH 7.4, Equilibrium solubility S sed, sedimented before centrifugation; for solubility thermodynamic at 24 h: continuously stirred, no sedimentation.
Series [4] is described as follows: Equilibrium solubility, saturation shake-flask, sedimentation as phase separation (reference, standard protocol). The conditions noted are these: for solubility: Britton-Robinson buffer, 6 h stirring, 18 h sedimentation, 25 °C.
For series [5] the following is noted: pH 7.4.
Series [6] is described as follows: Ionization state calculated from pKa and buffer pH. It counts as physicochemical.
The conditions of series [7]: cited from earlier work. This is another data set of the same source.

For the compound `CC(=O)[C@H]1CC[C@H]2[C@@H]3CCC4=CC(=O)CC[C@]4(C)[C@H]3CC[C@]12C` [PROG, progesterone], in series [1] (pH 7.4), the “Filtration: Result Range” value is 55–98%. Besides, in series [1] (pH 7.4), the “Filtration: Closest to Reference (100%)” value was 98%. The lipophilicity (logP) in series [2] is 3.48. Also, the thermodynamic solubility in series [3] (pH 7.4, 5000 rpm, 5 min) came to 0.0109 ± 9e-05 mg/mL (≈ 34.7 µM); in series [3] (pH 7.4, 5000 rpm, 10 min) it was 0.0109 ± 9e-05 mg/mL (≈ 34.7 µM); in series [3] (pH 7.4, 5000 rpm, 20 min), 0.0115 ± 6e-05 mg/mL (≈ 36.6 µM); in series [3] (pH 7.4, 10,000 rpm, 5 min), 0.011 ± 0.00012 mg/mL (≈ 35 µM); in series [3] (pH 7.4, 10,000 rpm, 10 min) it was 0.0116 ± 0.00011 mg/mL (≈ 36.9 µM); in series [3] (pH 7.4, 10,000 rpm, 20 min) it was 0.0124 ± 6e-05 mg/mL (≈ 39.4 µM). Further, the thermodynamic solubility at 24 h in series [3] (pH 7.4, Equilibrium solubility S stir, pH 7.4, 5000 rpm, 5 min) amounted to 0.011 ± 6e-05 mg/mL (≈ 35 µM); in series [3] (pH 7.4, Equilibrium solubility S stir, pH 7.4, 5000 rpm, 10 min) it was 0.0113 ± 0.00014 mg/mL (≈ 35.9 µM); in series [3] (pH 7.4, Equilibrium solubility S stir, pH 7.4, 5000 rpm, 20 min), 0.0128 ± 5e-05 mg/mL (≈ 40.7 µM); in series [3] (pH 7.4, Equilibrium solubility S stir, pH 7.4, 10,000 rpm, 5 min), 0.011 ± 0.00018 mg/mL (≈ 35 µM); in series [3] (pH 7.4, Equilibrium solubility S stir, pH 7.4, 10,000 rpm, 10 min), 0.0117 ± 0.00014 mg/mL (≈ 37.2 µM); in series [3] (pH 7.4, Equilibrium solubility S stir, pH 7.4, 10,000 rpm, 20 min), 0.0133 ± 0.0002 mg/mL (≈ 42.3 µM). Also, the “Increase in measured solubility caused by centrifugation” value in series [3] (vs reference, pH 7.4) is listed as “at least 20%”. This compound displayed a solubility in series [4] (pH 7.4, Solubility (reference), pH 7.4) of 0.00898 ± 9e-05 mg/mL (≈ 28.6 µM). For the same compound, the “Centrifugation: Closest to Reference (100%)” value in series [5] is reported as 121%. Also, the “Centrifugation: Result Range” value in series [5] is recorded as 121–148%.

For `NS(=O)(=O)c1cc2c(cc1Cl)NCNS2(=O)=O` [HCT, hydrochlorothiazide], in series [1] (pH 6.0), the “Filtration: Result Range” value is listed as 83–103% and the “Filtration: Closest to Reference (100%)” value is given as 102%. Further, in series [1] (pH 8.8), the “Filtration: Result Range” value is given as 75–100% and the “Filtration: Closest to Reference (100%)” value is 100%. Moreover, in series [1] (pH 11.0), the “Filtration: Result Range” value is listed as 65–119% and the “Filtration: Closest to Reference (100%)” value is reported as 100%. Besides, in series [6] (pH 8.8), the “Fraction in dianionic form” value was 4%, the Fraction monoanionic is given as 51% and the Fraction unionized was 45%. Also, the pKa in series [7] (first pKa for HCT) is 8.75. For the same compound, the “pKa (second value)” value in series [7] (second pKa of the diprotic acid) is 9.96.

Turning to `O=C(O)Cc1ccccc1Nc1c(Cl)cccc1Cl` [DICL-NA, Diclofenac sodium], the “Measured concentration after filtration” value in series [1] (nylon filter, low pH values) is recorded as “dropped to zero”. In addition, the “Filtration: Result Range” value is given as 0–164% in series [1] (pH 2.0), 0–103% in series [1] (pH 4.0) and 64–99% in series [1] (pH 10.0). For the same compound, the entries for the “Filtration: Closest to Reference (100%)” value in series [1] (pH 2.0), in series [1] (pH 4.0) and in series [1] (pH 10.0) were 93%, 103% and 99%, respectively. Moreover, the thermodynamic solubility at 24 h in series [3] (25 °C, pH 10, aqueous buffer, thermodynamic from solid, Equilibrium solubility S stir, pH 10.0, 10,000 rpm, 20 min) was determined as 11.2 mg/mL; in series [3] (pH 2, Equilibrium solubility S stir, pH 2.0, 5000 rpm, 5 min), 0.00164 ± 4e-05 mg/mL; in series [3] (pH 2, Equilibrium solubility S stir, pH 2.0, 5000 rpm, 10 min), 0.00152 ± 0.00022 mg/mL; in series [3] (pH 2, Equilibrium solubility S stir, pH 2.0, 5000 rpm, 20 min) it was 0.00171 ± 7e-05 mg/mL; in series [3] (pH 2, Equilibrium solubility S stir, pH 2.0, 10,000 rpm, 5 min), 0.00182 ± 7e-05 mg/mL; in series [3] (pH 2, Equilibrium solubility S stir, pH 2.0, 10,000 rpm, 10 min), 0.00178 ± 7e-05 mg/mL. Also, the solubility (thermodynamic) at 24 h in series [3] (pH 2, Equilibrium solubility S stir, pH 2.0, 10,000 rpm, 20 min) came to 0.002 ± 0.00013 mg/mL; in series [3] (pH 4, Equilibrium solubility S stir, pH 4.0, 5000 rpm, 5 min) it was 0.0027 ± 0.0001 mg/mL; in series [3] (pH 4, Equilibrium solubility S stir, pH 4.0, 5000 rpm, 10 min), 0.00269 ± 0.00024 mg/mL; in series [3] (pH 4, Equilibrium solubility S stir, pH 4.0, 5000 rpm, 20 min), 0.00258 ± 0.00016 mg/mL; in series [3] (pH 4, Equilibrium solubility S stir, pH 4.0, 10,000 rpm, 5 min), 0.00279 ± 0.0002 mg/mL; in series [3] (pH 4, Equilibrium solubility S stir, pH 4.0, 10,000 rpm, 10 min) it was 0.0028 ± 0.00011 mg/mL. Further, the thermodynamic solubility at 24 h in series [3] (pH 4, Equilibrium solubility S stir, pH 4.0, 10,000 rpm, 20 min) was determined as 0.00288 ± 0.00018 mg/mL; in series [3] (pH 10, Equilibrium solubility S stir, pH 10.0, 5000 rpm, 10 min) it was 9.81 ± 0.318 mg/mL; in series [3] (pH 10, Equilibrium solubility S stir, pH 10.0, 5000 rpm, 20 min) it was 10.7 mg/mL; in series [3] (pH 10, Equilibrium solubility S stir, pH 10.0, 10,000 rpm, 5 min) it was 9.65 ± 0.76 mg/mL. Besides, the results for the “Centrifugation: Closest to Reference (100%)” value in series [3] (pH 2.0), in series [3] (pH 4.0) and in series [3] (pH 10.0) were 100%, 99% and 98%, respectively. Moreover, the solubility was 0.00167 ± 5e-05 mg/mL in series [4] (pH 2, Solubility (reference), pH 2.0) and 9.47 ± 0.327 mg/mL in series [4] (pH 10, Solubility (reference), pH 10.0). In addition, the “Increase of solubility compared to the unionized form” value in series [4] (pH 10.0 (fully ionized) vs unionized form) is 5670 fold. Besides, the Fraction ionized result is reported as “about 1%” in series [6] (pH 2.0) and “around 50%” in series [6] (pH 4.0).
